From patent US3992391A, “1,3-Disubstituted thiourea compounds and preparation thereof” (priority 1972, dated 1976)

Legend:
[1] = Effect on tissue-toxic hypoxia (survival time after KCN i.p.), life-prolonging rate (1); type: in vivo, male mice (dd-strain); conditions: Mus musculus, po, 100 mg/kg oral, 1 hour before KCN 10 mg/kg i.p.; untreated group 140 seconds; read-out: Life-prolonging rate (1): increase percent of survival time
[2] = Effect on hypotonic hypoxia (survival time in nitrogen gas containing 1.5 % oxygen), life-prolonging rate (2); type: in vivo, male mice (dd-strain); conditions: Mus musculus, po, 100 mg/kg oral, 1 hour before 1.5 % oxygen in nitrogen; untreated group 8 minutes; read-out: Life-prolonging rate (2): increase percent of survival time
Description: b. Effect on hyptonic hypoxia
To male mice (dd-strain) weighting 15 to 22 g were administered orally the present compounds in the dosage of 100 mg/kg, and after one hour, the mice were taken to a closed room, air in which was substituted with nitrogen gas containing 1.5 % oxygen by ventilating the nitrogen gas for 2 minutes. As sending a mixed gas into the room, the time for death was measured. The increase percent of survival time to the average survival time (8 minutes) of the group, to which the present compounds were not administered, is shown in Table II as life-prolonging rate (2).

| SMILES | ILS at 100 mg/kg [1] | ILS at 100 mg/kg [2] |
| --- | --- | --- |
| CN(C)CCCNC(=S)Nc1cccnc1 | 35% | 10% |
| S=C(NCCSCc1ccccc1)Nc1cccnc1 | 64% | 55% |
| CCN(CC)CCCNC(=S)Nc1cccnc1 | 28% | 11% |
| OCCCNC(=S)Nc1cccnc1 | 115% | 100% |
| CC(C)(CO)NC(=S)Nc1cccnc1 | 67% | 50% |
| CC(O)CNC(=S)Nc1cccnc1 (stereo not shown) | 75% | 60% |
| OCC(CO)(CO)NC(=S)Nc1cccnc1 | 61% | 59% |
| COCCCNC(=S)Nc1cccnc1 | 35% | 25% |
| O=C(O)CCCNC(=S)Nc1cccnc1 | 127% | 78% |
| S=C(NCCSSCCNC(=S)Nc1cccnc1)Nc1cccnc1 | 30% | 5% |
| CN(C)CCNC(=S)Nc1cccnc1 | 61% | 46% |
| CCN(CC)CCNC(=S)Nc1cccnc1 | 89% | 40% |
| S=C(NNc1ccccc1)Nc1cccnc1 | 125% | 108% |
| CN(C)NC(=S)Nc1cccnc1 | 81% | 63% |
| S=C(Nc1cccnc1)NN1CCN(Cc2ccccc2)CC1 | 124% | 80% |
| S=C(NN=Cc1ccccn1)Nc1cccnc1 | 92% | 81% |
| S=C(NN=Cc1cccnc1)Nc1cccnc1 | 135% | 114% |
| OCCNC(=S)Nc1ccncc1 | 242% | 158% |
| CN(C)CCCNC(=S)Nc1ccncc1 | 37% | 21% |
| CN(Cc1ccccc1)NC(=S)Nc1ccncc1 | 156% | 58% |
| O=C(O)CCCNC(=S)Nc1ccccn1 | 72% | 53% |
| S=C(NCCSCc1ccccc1)Nc1ccccn1 | 86% | 65% |
| CCN(CC)CCNC(=S)Nc1ccccn1 | 20% | 16% |
